Values quoted from earlier work in the PKSmart pharmacokinetics tables (Seal et al. 2025).

Experiment: not given per row; by the article one of three: Lombardo et al. 2013, J Clin Pharmacol 53:178, doi 10.1177/0091270012440282; 'New Drugs at FDA', novel drug approvals for 2021 and 2022 (the article's reference 43); Yap, Li, Chen 2006, J Mol Graph Model 24:383, doi 10.1016
Settings: human; in vivo
In the case of `CN[C@@]1(c2ccccc2Cl)CCCCC1=O`, the clearance is given as 16.3 mL/min/kg. In the case of `CC(=O)OCC(CCn1cnc2cnc(N)nc21)COC(C)=O`, the clearance is listed as 8 mL/min/kg. For `CCOCn1c(Cc2ccccc2)c(C(C)C)c(=O)[nH]c1=O`, the clearance is listed as 28.6 mL/min/kg. For `N=C=N`, the clearance is listed as 20 mL/min/kg. In the case of `C[C@]12C=CC(=O)C=C1CC[C@H]1[C@@H]3C[C@@H](O)[C@](O)(C(=O)CO)[C@@]3(C)C[C@@H](O)[C@@]12F`, the clearance is given as 13.1 mL/min/kg. In the case of `CN1C(=O)NC(=O)[C@@](C)(C2=CCCCC2)C1=O`, the clearance is listed as 3.6 mL/min/kg. In the case of `C[C@H](CN1CCN(CCOCCO)CC1)CN1c2ccccc2Sc2ccccc21`, the clearance is listed as 17.5 mL/min/kg. In the case of `Cc1cccc(C)c1OC[C@@H](C)N`, the clearance is listed as 6.3 mL/min/kg. In the case of `C[C@@H](CCc1ccc(O)cc1)NCCc1ccc(O)c(O)c1`, the clearance is given as 59 mL/min/kg. For `C[C@H](CCc1ccccc1)NC[C@@H](O)c1ccc(O)c(C(N)=O)c1`, the clearance is listed as 28.1 mL/min/kg. For `O[P+](O)(O)C(Cl)(Cl)[P+](O)(O)O`, the clearance is listed as 2.2 mL/min/kg. For `C1=C/COCc2cc(ccc2OCCN2CCCC2)Nc2nccc(n2)-c2cccc(c2)COC/1`, the Vd is given as 3.82 L/kg, the clearance is given as 0.58 mL/min/kg and the half-life is given as 27.7 h. For `COC(=O)C1[C@H](OC(=O)c2ccccc2)CC2CC[C@@H]1N2C` (some centres undefined), the clearance is given as 32 mL/min/kg. For `CC(C)NC[C@@H](O)c1ccc(NS(C)(=O)=O)cc1`, the clearance is given as 2.14 mL/min/kg. For `CCCC[C@](C)(O)C/C=C\[C@H]1C(CCCCCCC(=O)OC)C(=O)C[C@@H]1O` (some centres undefined), the clearance is listed as 240 mL/min/kg. For `CC(=O)OCC1=C(C(=O)O)N2C(=O)C(NC(=O)Cc3cccs3)[C@@H]2SC1` (some centres undefined), the clearance is listed as 6.7 mL/min/kg. In the case of `CCC[C@H](C)[C@@]1(CC)C(=O)N=C(S)NC1=O`, the clearance is listed as 3.02 mL/min/kg. For `CN(C/C=C/C#CC(C)(C)C)Cc1cccc2ccccc12`, the clearance is listed as 17.9 mL/min/kg. In the case of `C[C@@H](c1cc2ccccc2s1)N(O)C(N)=O`, the clearance is given as 7.14 mL/min/kg. In the case of `CS(=O)(=O)c1ccc([C@H](O)[C@@H](CO)NC(=O)C(Cl)Cl)cc1`, the clearance is given as 2.62 mL/min/kg. In the case of `O=C(OCCN1CCCCCC1)C(c1ccsc1)C1CCCCC1` (centres undefined), the clearance is given as 18.3 mL/min/kg. For `CON=C(C(=O)NC1C(=O)N2C(C(=O)O)=CCS[C@H]12)c1csc(=N)[nH]1` (some centres undefined), the clearance is given as 1.79 mL/min/kg. For `CC(=O)O[C@H](CC(=O)[O-])C[N+](C)(C)C`, the clearance is given as 1.45 mL/min/kg. For `CO[C@]1(NC(=O)CSCC#N)C(=O)N2C(C(=O)O)=C(CSc3nnnn3C)CS[C@H]21`, the clearance is listed as 1.84 mL/min/kg. For `C=CCc1ccccc1OC[C@H](O)CNC(C)C`, the clearance is listed as 6.47 mL/min/kg. For `CC(C)[N+](C)(CCOC(=O)C1c2ccccc2Oc2ccccc21)C(C)C`, the clearance is given as 18.9 mL/min/kg. For `CNCC[C@H](Oc1ccccc1C)c1ccccc1`, the clearance is listed as 3.63 mL/min/kg. For `CN1CCN2c3ncccc3Cc3ccccc3[C@@H]2C1`, the clearance is listed as 8.25 mL/min/kg. In the case of `Cc1ccc(-c2cc(C(F)(F)F)nn2-c2ccc(S(N)(=O)=O)cc2)cc1`, the clearance is listed as 7.59 mL/min/kg. In the case of `CC[C@]1(C)CC(=O)NC1=O`, the clearance is given as 0.19 mL/min/kg. For `Oc1ccc2c(c1)C13CCCC[C@@]1(O)[C@H](C2)N(CC1CCC1)CC3`, the clearance is listed as 40 mL/min/kg. For `C[C@@H](O)C1C(=O)N2C(C(=O)O)=C(S[C@H]3CNC(C(=O)Nc4cccc(C(=O)O)c4)C3)[C@H](C)[C@@H]12` (some centres undefined), the clearance is given as 0.4 mL/min/kg. In the case of `CNCC[C@H](Oc1ccc(C(F)(F)F)cc1)c1ccccc1`, the clearance is listed as 9.6 mL/min/kg. In the case of `CCN1CCC[C@@H]1CNC(=O)c1cc(S(=O)(=O)CC)c(N)cc1OC`, the clearance is listed as 7.8 mL/min/kg. For `OC[C@H]1O[C@@H](n2cnc3c2N=CNC[C@@H]3O)CC1O` (some centres undefined), the clearance is listed as 1.68 mL/min/kg. In the case of `O=C(CCC(C(=O)O)N1CCN(C(CCC(=O)NCC(O)CO)C(=O)O)Cc2cccc(n2)CN(C(CCC(=O)NCC(O)CO)C(=O)O)CC1)NCC(O)CO` (centres undefined), the Vd is given as 0.22 L/kg, the clearance is given as 1.67 mL/min/kg and the half-life is given as 1.5 h. For `C[C@H]1CN(c2cc3c(cc2F)c(=O)c(C(=O)O)cn3-c2ccc(F)cc2F)CCN1`, the clearance is listed as 3.19 mL/min/kg. In the case of `COCC(=O)Nc1c(I)c(C(=O)NC[C@H](O)CO)c(I)c(C(=O)N(C)C[C@H](O)CO)c1I`, the clearance is listed as 1.53 mL/min/kg. For `C=c1c(N)c(O)c2c(c1O)N1C[C@@H]3N[C@@H]3[C@@]1(OC)C=2COC(N)=O`, the clearance is listed as 8.23 mL/min/kg. In the case of `CN[C@H](C)[C@H](O)c1ccccc1`, the clearance is given as 7.33 mL/min/kg. In the case of `CCCCC1(CCCC)CS(=O)(=O)c2ccc(N(C)C)cc2[C@@H](c2ccc(OCc3ccc(C[N+]45CCN(CC4)CC5)cc3)cc2)[C@H]1O`, the half-life is listed as 1.6 h. In the case of `Oc1ccc(CCNCCCCCCNCCc2ccccc2)cc1O`, the clearance is given as 36 mL/min/kg. For `CCOC(=O)Nc1c[n+](N2CCOCC2)no1`, the clearance is given as 9.52 mL/min/kg. In the case of `CC(=O)C1CC[C@H]2[C@@H]3CC[C@H]4C[C@](C)(O)CC[C@]4(C)[C@H]3CC[C@]12C` (some centres undefined), the half-life is listed as 34 h. For `CCN1CCN(c2ccc(Nc3cc(N(C)C(=O)Nc4c(Cl)c(OC)cc(OC)c4Cl)ncn3)cc2)CC1`, the Vd is given as 26.7 L/kg, the clearance is given as 9.19 mL/min/kg and the half-life is given as 33.5 h. In the case of `COCc1c(C(=O)OC(C)C)ncc2[nH]c3ccc(OCc4ccccc4)cc3c12`, the clearance is listed as 13 mL/min/kg. In the case of `CON=C(C(=O)NC1C(=O)N2C(C(=O)[O-])C(=C[N+]34CCC(C(N)=O)(CC3)CC4)CSC12)c1nsc(N)n1` (centres undefined), the Vd is listed as 0.27 L/kg and the clearance is listed as 1.7 mL/min/kg. In the case of `COc1c(N2CCN[C@@H](C)C2)c(F)cc2c(=O)c(C(=O)O)cn(C3CC3)c12`, the clearance is listed as 2.85 mL/min/kg. For `C=CC[C@]1([C@H](C)C#CCC)C(=O)NC(=O)N(C)C1=O`, the clearance is given as 13.3 mL/min/kg. For `CCC[C@H]1CC(C(=O)N[C@@H]([C@H]2O[C@@H](SC)[C@H](O)[C@@H](O)[C@@H]2O)[C@H](C)O)N(C)C1` (some centres undefined), the clearance is given as 1.98 mL/min/kg. In the case of `C[C@@H]1COc2c(N3CCN(C)CC3)c(F)cc3c(=O)c(C(=O)O)cn1c23`, the clearance is given as 2.58 mL/min/kg. In the case of `CC(C)(ON=C(C(=O)CC1C(=O)N2C(C(=O)O)=C(C[n+]3ccccc3)CS[C@H]12)c1csc(N)n1)C(=O)[O-]` (some centres undefined), the clearance is listed as 1.88 mL/min/kg.
